{"source": "paper PMC9653409", "about": "“Generative deep learning enables the discovery of a potent and selective RIPK1 inhibitor” (Nature Communications, 2022)", "test_in_all_cases": "Kinase inhibitory activity profiling of RI-962@10 µM (406 kinases, Eurofins)", "format_in_all_cases": "biochemical", "key": {"[1]": {"molecular_target": "panel of human kinases (kinase named in endpoint) (Homo sapiens, UniProt O00506)", "sequence (O00506 whole entry)": "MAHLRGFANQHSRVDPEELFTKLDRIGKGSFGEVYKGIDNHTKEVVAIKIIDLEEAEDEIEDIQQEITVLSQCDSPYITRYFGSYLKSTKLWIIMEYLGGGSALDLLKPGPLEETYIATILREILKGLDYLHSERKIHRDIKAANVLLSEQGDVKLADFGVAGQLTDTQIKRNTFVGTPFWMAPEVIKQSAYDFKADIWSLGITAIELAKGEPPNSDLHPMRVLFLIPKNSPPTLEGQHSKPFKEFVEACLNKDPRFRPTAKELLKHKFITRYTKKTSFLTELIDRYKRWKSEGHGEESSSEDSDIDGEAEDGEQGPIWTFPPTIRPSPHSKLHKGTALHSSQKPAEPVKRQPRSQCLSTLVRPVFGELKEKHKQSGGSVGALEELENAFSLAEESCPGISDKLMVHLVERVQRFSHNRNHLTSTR", "conditions": "10 µM; read-out: Activity (%), STK25(h)", "outline": "(§1)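 Radiometric filter-binding kinase assays: enzyme preincubated 15 min with compound in 8 mM MOPS pH 7.0, 0.2 mM EDTA, 250 μM peptide substrate, 10 mM magnesium acetate, 10 μM [γ-33P]-ATP. Reaction started with Mg/ATP, run 40 min at room temperature, stopped with phosphoric acid; 33P incorporation read by scintillation counting. Other kinases by similar protocols.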"}, "[2]": {"molecular_target": "panel of human kinases (kinase named in endpoint) (Homo sapiens, UniProt O15264)", "sequence (O15264 whole entry)": "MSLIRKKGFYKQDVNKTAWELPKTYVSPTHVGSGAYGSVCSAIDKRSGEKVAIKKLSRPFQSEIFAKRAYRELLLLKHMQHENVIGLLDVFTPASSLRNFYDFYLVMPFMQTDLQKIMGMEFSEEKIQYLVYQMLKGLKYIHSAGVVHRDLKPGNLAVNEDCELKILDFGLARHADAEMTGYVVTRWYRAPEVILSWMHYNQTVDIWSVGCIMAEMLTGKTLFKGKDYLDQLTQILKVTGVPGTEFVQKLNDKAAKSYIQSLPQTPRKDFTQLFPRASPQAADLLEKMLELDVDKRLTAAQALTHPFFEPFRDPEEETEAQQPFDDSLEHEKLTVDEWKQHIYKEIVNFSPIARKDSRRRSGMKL", "conditions": "10 µM; read-out: Activity (%), SAPK4(h)", "outline": "as §1"}, "[3]": {"molecular_target": "panel of human kinases (kinase named in endpoint) (Homo sapiens, UniProt P00519, Q252H)", "conditions": "10 µM; read-out: Activity (%), Abl (Q252H) (h)", "outline": "as §1"}, "[4]": {"molecular_target": "panel of human kinases (kinase named in endpoint) (Homo sapiens, UniProt P07949, V804M)", "conditions": "10 µM; read-out: Activity (%), Ret(V804M)(h)", "outline": "as §1"}, "[5]": {"molecular_target": "panel of human kinases (kinase named in endpoint) (Homo sapiens, UniProt P08581)", "conditions": "10 µM; read-out: Activity (%), Met(h)", "outline": "as §1"}, "[6]": {"molecular_target": "panel of human kinases (kinase named in endpoint) (Homo sapiens, UniProt P08581, M1250T)", "conditions": "10 µM; read-out: Activity (%), Met(M1268T)(h)", "outline": "as §1"}, "[7]": {"molecular_target": "panel of human kinases (kinase named in endpoint) (Homo sapiens, UniProt P08581, Y1230C)", "conditions": "10 µM; read-out: Activity (%), Met(Y1248C)(h)", "outline": "as §1"}, "[8]": {"molecular_target": "panel of human kinases (kinase named in endpoint) (Homo sapiens, UniProt P17252)", "conditions": "10 µM; read-out: Activity (%), PKCα(h)", "outline": "as §1"}, "[9]": {"molecular_target": "panel of human kinases (kinase named in endpoint) (Homo sapiens, UniProt P22607)", "conditions": "10 µM; read-out: Activity (%), FGFR3(h)", "outline": "as §1"}, "[10]": {"molecular_target": "panel of human kinases (kinase named in endpoint) (Homo sapiens, UniProt P29597)", "sequence (P29597 whole entry)": "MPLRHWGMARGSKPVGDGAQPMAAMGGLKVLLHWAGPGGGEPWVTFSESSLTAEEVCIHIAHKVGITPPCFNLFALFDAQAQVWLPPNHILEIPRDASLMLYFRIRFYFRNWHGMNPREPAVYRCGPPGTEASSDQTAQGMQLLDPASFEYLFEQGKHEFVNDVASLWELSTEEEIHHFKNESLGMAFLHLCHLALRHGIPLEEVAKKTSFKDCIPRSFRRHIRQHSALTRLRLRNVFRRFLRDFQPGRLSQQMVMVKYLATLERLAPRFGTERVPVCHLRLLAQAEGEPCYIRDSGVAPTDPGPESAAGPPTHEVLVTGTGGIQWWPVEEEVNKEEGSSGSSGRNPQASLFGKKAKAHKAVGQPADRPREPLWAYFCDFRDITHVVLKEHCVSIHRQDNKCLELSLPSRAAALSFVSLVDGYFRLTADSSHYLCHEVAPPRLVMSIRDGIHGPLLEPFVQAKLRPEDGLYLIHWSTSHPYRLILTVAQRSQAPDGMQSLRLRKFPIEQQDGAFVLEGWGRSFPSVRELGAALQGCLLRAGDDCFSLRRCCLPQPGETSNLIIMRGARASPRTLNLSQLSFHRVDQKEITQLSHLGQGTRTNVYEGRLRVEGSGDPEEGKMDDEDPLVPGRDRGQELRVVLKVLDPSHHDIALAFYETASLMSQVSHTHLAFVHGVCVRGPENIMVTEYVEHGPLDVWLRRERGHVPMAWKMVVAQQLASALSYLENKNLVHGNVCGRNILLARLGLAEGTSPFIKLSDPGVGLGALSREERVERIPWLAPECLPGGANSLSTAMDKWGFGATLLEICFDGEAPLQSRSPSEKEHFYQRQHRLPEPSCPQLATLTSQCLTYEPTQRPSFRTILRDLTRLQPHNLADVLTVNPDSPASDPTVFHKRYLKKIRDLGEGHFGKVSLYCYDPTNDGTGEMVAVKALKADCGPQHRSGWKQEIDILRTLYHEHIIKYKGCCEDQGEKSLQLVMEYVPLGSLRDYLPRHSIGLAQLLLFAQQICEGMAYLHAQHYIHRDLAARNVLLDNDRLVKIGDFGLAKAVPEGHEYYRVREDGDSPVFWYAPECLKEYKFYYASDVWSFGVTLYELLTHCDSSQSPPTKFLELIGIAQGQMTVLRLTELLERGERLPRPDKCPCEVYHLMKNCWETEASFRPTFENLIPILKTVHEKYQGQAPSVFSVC", "conditions": "10 µM; read-out: Activity (%), TYK2(h)", "outline": "as §1"}, "[11]": {"molecular_target": "panel of human kinases (kinase named in endpoint) (Homo sapiens, UniProt P30530)", "conditions": "10 µM; read-out: Activity (%), Axl(h)", "outline": "as §1"}, "[12]": {"molecular_target": "panel of human kinases (kinase named in endpoint) (Homo sapiens, UniProt P34947)", "conditions": "10 µM; read-out: Activity (%), GRK5(h)", "outline": "as §1"}, "[13]": {"molecular_target": "panel of human kinases (kinase named in endpoint) (Homo sapiens, UniProt P42336, E542K)", "conditions": "10 µM; read-out: Activity (%), PI3(p110a(E542K)/p85a)", "outline": "as §1"}, "[14]": {"molecular_target": "panel of human kinases (kinase named in endpoint) (Homo sapiens, UniProt P50613)", "sequence (P50613 whole entry)": "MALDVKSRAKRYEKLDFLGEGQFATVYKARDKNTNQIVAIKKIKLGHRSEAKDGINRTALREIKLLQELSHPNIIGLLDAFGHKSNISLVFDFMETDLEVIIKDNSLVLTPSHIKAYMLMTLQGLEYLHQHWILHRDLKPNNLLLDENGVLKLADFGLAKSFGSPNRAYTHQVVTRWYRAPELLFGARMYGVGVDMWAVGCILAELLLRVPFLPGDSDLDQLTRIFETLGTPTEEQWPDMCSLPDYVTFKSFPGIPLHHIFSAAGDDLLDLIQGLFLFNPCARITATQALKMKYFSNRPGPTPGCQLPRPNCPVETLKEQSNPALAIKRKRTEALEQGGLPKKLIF", "conditions": "10 µM; read-out: Activity (%), CDK7/cyclinH/MAT1(h)", "outline": "as §1"}, "[15]": {"molecular_target": "panel of human kinases (kinase named in endpoint) (Homo sapiens, UniProt P53667)", "sequence (P53667 whole entry)": "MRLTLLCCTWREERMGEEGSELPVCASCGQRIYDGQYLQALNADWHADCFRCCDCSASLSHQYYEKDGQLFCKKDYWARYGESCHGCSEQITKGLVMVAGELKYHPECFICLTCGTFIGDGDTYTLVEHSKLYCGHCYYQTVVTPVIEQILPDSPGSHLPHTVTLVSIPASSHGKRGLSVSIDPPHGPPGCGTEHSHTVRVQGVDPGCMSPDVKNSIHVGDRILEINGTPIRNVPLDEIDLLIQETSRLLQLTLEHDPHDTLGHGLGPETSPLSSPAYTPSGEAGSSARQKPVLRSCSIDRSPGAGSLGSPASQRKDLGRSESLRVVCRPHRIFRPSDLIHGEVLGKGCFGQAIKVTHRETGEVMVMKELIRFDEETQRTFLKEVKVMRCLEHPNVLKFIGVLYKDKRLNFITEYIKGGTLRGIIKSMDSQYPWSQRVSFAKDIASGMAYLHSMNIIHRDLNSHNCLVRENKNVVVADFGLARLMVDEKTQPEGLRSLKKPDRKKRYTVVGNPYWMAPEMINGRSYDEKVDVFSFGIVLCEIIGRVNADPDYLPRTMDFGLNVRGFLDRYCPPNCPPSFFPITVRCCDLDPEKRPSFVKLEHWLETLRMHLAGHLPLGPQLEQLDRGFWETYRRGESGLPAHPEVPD", "conditions": "10 µM; read-out: Activity (%), LIMK1(h)", "outline": "as §1"}, "[16]": {"molecular_target": "panel of human kinases (kinase named in endpoint) (Homo sapiens, UniProt Q05655)", "conditions": "10 µM; read-out: Activity (%), PKCδ(h)", "outline": "as §1"}, "[17]": {"molecular_target": "panel of human kinases (kinase named in endpoint) (Homo sapiens, UniProt Q06187, R28H)", "sequence (Q06187 whole entry R28H)": "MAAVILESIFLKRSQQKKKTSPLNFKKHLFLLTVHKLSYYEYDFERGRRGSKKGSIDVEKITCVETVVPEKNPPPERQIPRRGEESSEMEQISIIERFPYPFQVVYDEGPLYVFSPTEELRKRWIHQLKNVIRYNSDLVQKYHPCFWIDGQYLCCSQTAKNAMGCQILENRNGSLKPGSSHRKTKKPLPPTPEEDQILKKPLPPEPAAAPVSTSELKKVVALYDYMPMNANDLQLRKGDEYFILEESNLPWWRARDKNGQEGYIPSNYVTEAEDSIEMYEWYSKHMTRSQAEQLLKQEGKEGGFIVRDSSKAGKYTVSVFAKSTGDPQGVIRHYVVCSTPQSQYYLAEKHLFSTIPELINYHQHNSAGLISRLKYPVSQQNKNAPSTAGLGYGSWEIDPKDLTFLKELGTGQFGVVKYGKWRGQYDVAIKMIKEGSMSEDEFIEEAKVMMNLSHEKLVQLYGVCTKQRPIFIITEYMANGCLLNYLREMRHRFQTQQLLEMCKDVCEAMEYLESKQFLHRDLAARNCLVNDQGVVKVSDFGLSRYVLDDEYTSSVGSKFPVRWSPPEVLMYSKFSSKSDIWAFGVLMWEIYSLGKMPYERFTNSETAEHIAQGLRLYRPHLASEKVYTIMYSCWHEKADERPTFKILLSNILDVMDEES", "conditions": "10 µM; read-out: Activity (%), BTK(R28H)(h)", "outline": "as §1"}, "[18]": {"molecular_target": "panel of human kinases (kinase named in endpoint) (Homo sapiens, UniProt Q09013)", "conditions": "10 µM; read-out: Activity (%), DMPK(h)", "outline": "as §1"}, "[19]": {"molecular_target": "panel of human kinases (kinase named in endpoint) (Homo sapiens, UniProt Q13535)", "conditions": "10 µM; read-out: Activity (%), ATR/ATRIP(h)", "outline": "as §1"}, "[20]": {"molecular_target": "panel of human kinases (kinase named in endpoint) (Homo sapiens, UniProt Q13554)", "sequence (Q13554 whole entry)": "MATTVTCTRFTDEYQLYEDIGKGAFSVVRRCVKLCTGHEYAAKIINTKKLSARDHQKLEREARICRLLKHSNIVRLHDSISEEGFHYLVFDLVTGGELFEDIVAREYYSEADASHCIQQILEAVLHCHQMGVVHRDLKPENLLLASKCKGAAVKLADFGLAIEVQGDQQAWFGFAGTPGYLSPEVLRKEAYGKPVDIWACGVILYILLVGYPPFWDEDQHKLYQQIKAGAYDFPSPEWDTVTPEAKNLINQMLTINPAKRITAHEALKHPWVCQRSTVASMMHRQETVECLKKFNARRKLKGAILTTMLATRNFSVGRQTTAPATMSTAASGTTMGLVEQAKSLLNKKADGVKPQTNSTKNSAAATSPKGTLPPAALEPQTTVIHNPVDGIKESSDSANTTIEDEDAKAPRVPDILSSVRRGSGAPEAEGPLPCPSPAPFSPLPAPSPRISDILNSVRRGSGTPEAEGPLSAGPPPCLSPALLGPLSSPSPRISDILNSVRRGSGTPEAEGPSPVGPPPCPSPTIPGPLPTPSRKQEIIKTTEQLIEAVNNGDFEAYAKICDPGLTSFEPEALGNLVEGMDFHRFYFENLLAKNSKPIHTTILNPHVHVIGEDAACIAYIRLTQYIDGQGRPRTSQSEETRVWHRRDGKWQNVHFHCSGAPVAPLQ", "conditions": "10 µM; read-out: Activity (%), CaMKIIβ(h)", "outline": "as §1"}, "[21]": {"molecular_target": "panel of human kinases (kinase named in endpoint) (Homo sapiens, UniProt Q13627)", "conditions": "10 µM; read-out: Activity (%), DYRK1A(h)", "outline": "as §1"}, "[22]": {"molecular_target": "panel of human kinases (kinase named in endpoint) (Homo sapiens, UniProt Q15119)", "conditions": "10 µM; read-out: Activity (%), PDHK2(h)", "outline": "as §1"}, "[23]": {"molecular_target": "panel of human kinases (kinase named in endpoint) (Homo sapiens, UniProt Q86UX6)", "conditions": "10 µM; read-out: Activity (%), STK32C(h)", "outline": "as §1"}, "[24]": {"molecular_target": "panel of human kinases (kinase named in endpoint) (Homo sapiens, UniProt Q8IW41)", "conditions": "10 µM; read-out: Activity (%), PRAK(h)", "outline": "as §1"}, "[25]": {"molecular_target": "panel of human kinases (kinase named in endpoint) (Homo sapiens, UniProt Q9P1W9)", "conditions": "10 µM; read-out: Activity (%), Pim-2(h)", "outline": "as §1"}}}
{"compound": "CC(C)C(=O)Nc1nc2cc(-c3ccc4c(c3)c(C(=O)NC(C)c3ccccc3)cn4C)ccn2n1", "note": "(stereo not shown) [RI-962]", "values": [{"measurement": "activity at 10 µM", "setting": "[1]", "value": 81, "unit": "%"}, {"measurement": "activity at 10 µM", "setting": "[2]", "value": 91, "unit": "%"}, {"measurement": "activity at 10 µM", "setting": "[3]", "value": 135, "unit": "%"}, {"measurement": "activity at 10 µM", "setting": "[4]", "value": 115, "unit": "%"}, {"measurement": "activity at 10 µM", "setting": "[5]", "value": 102, "unit": "%"}, {"measurement": "activity at 10 µM", "setting": "[6]", "value": 115, "unit": "%"}, {"measurement": "activity at 10 µM", "setting": "[7]", "value": 116, "unit": "%"}, {"measurement": "activity at 10 µM", "setting": "[8]", "value": 97, "unit": "%"}, {"measurement": "activity at 10 µM", "setting": "[9]", "value": 72, "unit": "%"}, {"measurement": "activity at 10 µM", "setting": "[10]", "value": 113, "unit": "%"}, {"measurement": "activity at 10 µM", "setting": "[11]", "value": 110, "unit": "%"}, {"measurement": "activity at 10 µM", "setting": "[12]", "value": 80, "unit": "%"}, {"measurement": "activity at 10 µM", "setting": "[13]", "value": 97, "unit": "%"}, {"measurement": "activity at 10 µM", "setting": "[14]", "value": 93, "unit": "%"}, {"measurement": "activity at 10 µM", "setting": "[15]", "value": 97, "unit": "%"}, {"measurement": "activity at 10 µM", "setting": "[16]", "value": 90, "unit": "%"}, {"measurement": "activity at 10 µM", "setting": "[17]", "value": 105, "unit": "%"}, {"measurement": "activity at 10 µM", "setting": "[18]", "value": 89, "unit": "%"}, {"measurement": "activity at 10 µM", "setting": "[19]", "value": 108, "unit": "%"}, {"measurement": "activity at 10 µM", "setting": "[20]", "value": 109, "unit": "%"}, {"measurement": "activity at 10 µM", "setting": "[21]", "value": 96, "unit": "%"}, {"measurement": "activity at 10 µM", "setting": "[22]", "value": 96, "unit": "%"}, {"measurement": "activity at 10 µM", "setting": "[23]", "value": 76, "unit": "%"}, {"measurement": "activity at 10 µM", "setting": "[24]", "value": 64, "unit": "%"}, {"measurement": "activity at 10 µM", "setting": "[25]", "value": 97, "unit": "%"}]}
